Results taken from PubChem BioAssay AID2060903 (Molecular Pharmacology Branch, DTP, NCI, 2025).

Tested on: 377384-186-R-J1-PDC complex spheroid viability
Test: Anticancer human tumor 377384-186-R-J1-PDC patient-derived pancreatic carcinoma cell line growth inhibition [RAS]
Conditions: for viability, T/C: stronger effect = lower value
In short: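 Tumour cells grown as complex spheroids with HUVEC endothelial cells and mesenchymal stem cells, treated with RAS pathway inhibitor combinations. Each agent spans half-log steps from near clinical Cmax, or 10 microM where Cmax is unknown.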

[1] = curve of first compound, second compound 0.000949 µM
[2] = curve of first compound, second compound 0.003 µM
[3] = curve of first compound, second compound 0.00949 µM
[4] = curve of first compound, second compound 0.03 µM
[5] = curve of first compound, second compound 0.0949 µM
[6] = curve of first compound, second compound 0.3 µM
[7] = second compound 0.000949 µM, first compound 0.0316 µM
[8] = second compound 0.000949 µM, first compound 0.1 µM
[9] = second compound 0.000949 µM, first compound 0.316 µM
[10] = second compound 0.000949 µM, first compound 1 µM
[11] = second compound 0.000949 µM, first compound 3.16 µM
[12] = second compound 0.000949 µM, first compound 10 µM
[13] = second compound 0.003 µM, first compound 0.0316 µM
[14] = second compound 0.003 µM, first compound 0.1 µM
[15] = second compound 0.003 µM, first compound 0.316 µM
[16] = second compound 0.003 µM, first compound 1 µM
[17] = second compound 0.003 µM, first compound 3.16 µM
[18] = second compound 0.003 µM, first compound 10 µM
[19] = second compound 0.00949 µM, first compound 0.0316 µM
[20] = second compound 0.00949 µM, first compound 0.1 µM
[21] = second compound 0.00949 µM, first compound 0.316 µM
[22] = second compound 0.00949 µM, first compound 1 µM
[23] = second compound 0.00949 µM, first compound 3.16 µM
[24] = second compound 0.00949 µM, first compound 10 µM
[25] = second compound 0.03 µM, first compound 0.0316 µM
[26] = second compound 0.03 µM, first compound 0.1 µM
[27] = second compound 0.03 µM, first compound 0.316 µM
[28] = second compound 0.03 µM, first compound 1 µM
[29] = second compound 0.03 µM, first compound 3.16 µM
[30] = second compound 0.03 µM, first compound 10 µM
[31] = second compound 0.0949 µM, first compound 0.0316 µM
[32] = second compound 0.0949 µM, first compound 0.1 µM
[33] = second compound 0.0949 µM, first compound 0.316 µM
[34] = second compound 0.0949 µM, first compound 1 µM
[35] = second compound 0.0949 µM, first compound 3.16 µM
[36] = second compound 0.0949 µM, first compound 10 µM
[37] = second compound 0.3 µM, first compound 0.0316 µM
[38] = second compound 0.3 µM, first compound 0.1 µM
[39] = second compound 0.3 µM, first compound 0.316 µM
[40] = second compound 0.3 µM, first compound 1 µM
[41] = second compound 0.3 µM, first compound 3.16 µM
[42] = second compound 0.3 µM, first compound 10 µM
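Also: spheroids exposed to compounds for seven days before readout.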

CCC(CC)c1cc(NC2CCC(N)C2)n2nccc2n1 (stereo not given) + CCn1c(-c2cc(N3CCN(C)CC3)cnc2C(C)OC)c2c3cc(ccc31)-c1csc(n1)CC(NC(=O)C1CC1C)C(=O)N1CCCC(N1)C(=O)OCC(C)(C)C2
IC50 [1]: < 31.6 nM | IC50 [2]: < 31.6 nM | IC50 [3]: < 31.6 nM | IC50 [4]: < 31.6 nM | IC50 [5]: < 31.6 nM | IC50 [6]: < 31.6 nM | viability, T/C [7]: 48.2% | viability, T/C [8]: 55% | viability, T/C [9]: 46.9% | viability, T/C [10]: 32.9% | viability, T/C [11]: 0.81% | viability, T/C [12]: 2.3% | viability, T/C [13]: 21.7% | viability, T/C [14]: 16.6% | viability, T/C [15]: 20.9% | viability, T/C [16]: 10.7% | viability, T/C [17]: 0.83% | viability, T/C [18]: 2.38% | viability, T/C [19]: 4.86% | viability, T/C [20]: 4.6% | viability, T/C [21]: 5.64% | viability, T/C [22]: 3.71% | viability, T/C [23]: 0.61% | viability, T/C [24]: 3.05% | viability, T/C [25]: 2.61% | viability, T/C [26]: 2.47% | viability, T/C [27]: 2.47% | viability, T/C [28]: 2.01% | viability, T/C [29]: 0.73% | viability, T/C [30]: 1.89% | viability, T/C [31]: 1.88% | viability, T/C [32]: 1.8% | viability, T/C [33]: 1.76% | viability, T/C [34]: 2.22% | viability, T/C [35]: 0.82% | viability, T/C [36]: 2.4% | viability, T/C [37]: 2.16% | viability, T/C [38]: 1.88% | viability, T/C [39]: 1.75% | viability, T/C [40]: 1.54% | viability, T/C [41]: 0.54% | viability, T/C [42]: 1.98%

CCn1c(-c2cccnc2C(C)OC)c2c3cc(ccc31)N1CCOC(CC(NC(=O)C(C(C)C)N(C)C(=O)C3(F)CCN(C(=O)C#CC(C)(C)N(C)C)CC3)C(=O)N3CCCC(N3)C(=O)OCC(C)(C)C2)C1 (stereo not given)
viability, T/C (compound 0.000949 µM): 105% [middle of 8 runs] | viability, T/C (compound 0.003 µM): 109% [middle of 8 runs] | viability, T/C (compound 0.03 µM): 99.3% [middle of 8 runs] | viability, T/C (compound 0.0949 µM): 99.5% [middle of 8 runs] | viability, T/C (compound 0.3 µM): 88% [middle of 8 runs] | IC50 (compound alone, run of 08/20/2024): > 300 nM

NC1c2ccccc2OC12CCN(c1cnc3c(N4CCCc5ncccc54)n[nH]c3n1)CC2 (stereo not given) + CCn1c(-c2cccnc2C(C)OC)c2c3cc(ccc31)N1CCOC(CC(NC(=O)C(C(C)C)N(C)C(=O)C3(F)CCN(C(=O)C#CC(C)(C)N(C)C)CC3)C(=O)N3CCCC(N3)C(=O)OCC(C)(C)C2)C1
IC50 [1]: > 10000 nM | IC50 [2]: > 10000 nM | IC50 [3]: > 10000 nM | IC50 [4]: > 10000 nM | IC50 [5]: > 10000 nM | IC50 [6]: > 10000 nM | viability, T/C [7]: 106% | viability, T/C [8]: 97.5% | viability, T/C [9]: 88.2% | viability, T/C [10]: 82.3% | viability, T/C [11]: 84.3% | viability, T/C [12]: 84.3% | viability, T/C [13]: 98.8% | viability, T/C [14]: 86.1% | viability, T/C [15]: 82.2% | viability, T/C [16]: 79.9% | viability, T/C [17]: 93.3% | viability, T/C [18]: 67.4% | viability, T/C [19]: 97.3% | viability, T/C [20]: 84.3% | viability, T/C [21]: 84.5% | viability, T/C [22]: 73.8% | viability, T/C [23]: 89.8% | viability, T/C [24]: 76.1% | viability, T/C [25]: 102% | viability, T/C [26]: 84.4% | viability, T/C [27]: 70.6% | viability, T/C [28]: 86% | viability, T/C [29]: 79.2% | viability, T/C [30]: 68.1% | viability, T/C [31]: 75.6% | viability, T/C [32]: 82.6% | viability, T/C [33]: 81% | viability, T/C [34]: 69.3% | viability, T/C [35]: 74% | viability, T/C [36]: 71.9% | viability, T/C [37]: 67.6% | viability, T/C [38]: 60.1% | viability, T/C [39]: 59.4% | viability, T/C [40]: 63.1% | viability, T/C [41]: 70.9% | viability, T/C [42]: 59.9%
